Data from ChEMBL document CHEMBL5244281, “Tackling multidrug-resistant Staphylococcus aureus by natural products and their analogues acting as NorA efflux pump inhibitors” (Bioorg Med Chem, 2023).
Values after ≈ are worked out from the molar mass of the structure shown.

What was measured:
[1] = test system: Staphylococcus aureus; assay: Synergistic antimicrobial activity against Staphylococcus aureus 1199B overexpressing NorA efflux pump assessed as norfloxacin MIC incubated for 24 hrs by broth dilution method; assay type: functional
[2] = molecular target: T1, Quinolone resistance protein NorA (Staphylococcus aureus) (UniProt P0A0J7); assay: Inhibition of NorA efflux pump in Staphylococcus aureus 1199B overexpressing NorA gene assessed as efflux inhibition at 2 mg/L by Hoechst 33342 staining based fluorescence assay
T1 sequence (whole entry): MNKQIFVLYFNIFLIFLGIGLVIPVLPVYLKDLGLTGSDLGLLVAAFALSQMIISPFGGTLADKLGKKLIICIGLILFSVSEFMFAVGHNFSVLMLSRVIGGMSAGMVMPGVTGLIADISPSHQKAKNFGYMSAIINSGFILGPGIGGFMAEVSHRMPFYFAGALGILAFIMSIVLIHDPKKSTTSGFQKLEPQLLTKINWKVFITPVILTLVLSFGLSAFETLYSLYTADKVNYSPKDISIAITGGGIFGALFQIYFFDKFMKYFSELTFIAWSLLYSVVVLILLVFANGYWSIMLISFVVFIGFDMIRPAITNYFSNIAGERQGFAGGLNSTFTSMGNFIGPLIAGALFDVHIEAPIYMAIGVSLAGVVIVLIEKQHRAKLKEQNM

[3] = test system: Staphylococcus aureus; assay: Antibacterial activity against fluoroquinolone-resistant Staphylococcus aureus 1199B overexpressing NorA gene assessed as bacterial growth inhibition by microdilution method; assay type: functional
[4] = molecular target: T1, Quinolone resistance protein NorA (Staphylococcus aureus); assay: Inhibition of NorA efflux pump in Staphylococcus aureus 1199B overexpressing NorA efflux pump assessed as reduction in ciprofloxacin MIC at […] by resazurin based assay (Rvb= 6.25 ug/ml)
[5] = molecular target: Quinolone resistance protein NorA (Staphylococcus aureus, UniProt P0A0J7); assay: Inhibition of NorA efflux pump in Staphylococcus aureus 1199B overexpressing NorA gene assessed as reduction in EtBr efflux inhibition by spectrofluorometric assay
[6] = test system: Staphylococcus aureus; assay: Antibacterial activity against Staphylococcus aureus K1758 with NorA deletion mutant assessed as bacterial growth inhibition; assay type: functional
[7] = test system: Staphylococcus aureus; assay: Synergistic antibacterial activity against Staphylococcus aureus 1199B overexpressing NorA efflux protein assessed as fractional inhibitory concentration index in presence of ciprofloxacin by checkerboard assay; assay type: functional
[8] = test system: Staphylococcus aureus; assay: Synergistic antibacterial activity against Staphylococcus aureus 1199B overexpressing NorA efflux protein assessed as fractional inhibitory concentration index in presence of chloramphenicol by checkerboard assay; assay type: functional
[9] = test system: Staphylococcus aureus; assay: Synergistic antibacterial activity against Staphylococcus aureus 1199B overexpressing NorA efflux protein assessed as fractional inhibitory concentration index in presence of moxifloxacin by checkerboard assay; assay type: functional
[10] = test system: Staphylococcus aureus; assay: Antibacterial activity against Staphylococcus aureus 1199B overexpressing NorA efflux protein assessed as bacterial growth inhibition; assay type: functional
[11] = test system: Staphylococcus aureus; assay: Synergistic antibacterial activity against Staphylococcus aureus 1199B overexpressing NorA efflux protein assessed as fractional inhibitory concentration index in presence of norfloxacin by checkerboard assay; assay type: functional
[12] = test system: Staphylococcus aureus; assay: Synergistic antimicrobial activity against Staphylococcus aureus 1199B overexpressing NorA efflux pump assessed as fractional inhibitory concentration index incubated for 24 hrs by checkerboard method; assay type: functional
[13] = test system: Staphylococcus aureus; assay: Synergistic antimicrobial activity against Staphylococcus aureus 1199B overexpressing NorA efflux pump assessed as reduction in norfloxacin MIC incubated for 24 hrs by MTT colorimetric assay (Rvb= 128 mg/ml); assay type: functional
[14] = test system: LS180; assay: Cytotoxicity against human LS180 cells; assay type: functional, cell-based
[15] = molecular target: ATP-dependent translocase ABCB1 (Homo sapiens, UniProt P08183); assay: Inhibition of P-gp mediated efflux in human LS180 cells using digoxin as substrate incubated for 90 mins by fluorescence assay; assay type: cell-based
[16] = test system: Staphylococcus aureus; assay: Synergistic antibacterial activity against Staphylococcus aureus 1199B overexpressing NorA efflux pump assessed as fractional inhibitory concentration index in presence of norfloxacin incubated for 18 hrs by checkerboard assay; assay type: functional
[17] = test system: Staphylococcus aureus; assay: Antibacterial activity against Staphylococcus aureus 1199B overexpressing NorA efflux pump assessed as bacterial growth inhibition incubated for 18 hrs by broth dilution method; assay type: functional
[18] = molecular target: T1, Quinolone resistance protein NorA (Staphylococcus aureus); assay: Inhibition of NorA efflux pump in Staphylococcus aureus 1199B overexpressing NorA efflux pump assessed as decrease in ciprofloxacin MIC at 1/4 times MIC and measured for 45 mins in presence of ciprofloxacin by fluorimetric analysis (Rvb=8 ug/ml)
[19] = test system: Staphylococcus aureus; assay: Synergistic antibacterial activity against Staphylococcus aureus 1199B overexpressing NorA efflux pump assessed as fractional inhibitory concentration index in presence of ciprofloxacin incubated for 18 hrs by checkerboard assay; assay type: functional
[20] = test system: Staphylococcus aureus; assay: Antibacterial activity against Staphylococcus aureus K1758 with NorA knockout assessed as bacterial growth inhibition incubated for 18 hrs by broth dilution method; assay type: functional
[21] = molecular target: T1, Quinolone resistance protein NorA (Staphylococcus aureus); assay: Inhibition of NorA efflux pump in Staphylococcus aureus 1199B overexpressing NorA efflux pump assessed as decrease in norfloxacin MIC at 1/4 times MIC and measured for 45 mins in presence of norfloxacin by fluorimetric analysis (Rvb=32 ug/ml)
[22] = test system: Staphylococcus aureus; assay: Synergistic antibacterial activity against methicillin-susceptible Staphylococcus aureus 1199B overexpressing NorA efflux pump assessed as fractional inhibitory concentration index at 64 ug/ml incubated for 18 to 24 hrs in presence of norfloxacin by checkerboard microdilution assay; assay type: functional; conditions: dose 64 µg/ml; time 18-24 hrs
[23] = test system: Staphylococcus aureus; assay: Synergistic antibacterial activity against methicillin-susceptible Staphylococcus aureus 1199B overexpressing NorA efflux pump assessed as reduction in norfloxacin MIC at 64 ug/ml incubated for 18 to 24 hrs in presence of norfloxacin by MTT assay; assay type: functional; conditions: dose 64 µg/ml, time 18-24 hrs
[24] = test system: Staphylococcus aureus; assay: Antibacterial activity against Staphylococcus aureus 1199B expressing NorA efflux protein assessed as bacterial growth inhibition incubated for 24 hrs by resazurin based microdilution assay; assay type: functional
[25] = test system: Staphylococcus aureus; assay: Antibacterial activity against Staphylococcus aureus RN4220 expressing MsrA efflux protein assessed as bacterial growth inhibition incubated for 24 hrs by resazurin based microdilution assay; assay type: functional
[26] = test system: Staphylococcus aureus; assay: Antibacterial activity against Staphylococcus aureus IS-58 expressing TetK efflux protein assessed as bacterial growth inhibition incubated for 24 hrs by resazurin based microdilution assay; assay type: functional
[27] = test system: Staphylococcus aureus; assay: Antibacterial activity against wild type Staphylococcus aureus 1199 assessed as bacterial growth inhibition incubated for 24 hrs by resazurin based microdilution assay; assay type: functional
[28] = test system: Staphylococcus haemolyticus; assay: Antibacterial activity against Staphylococcus haemolyticus assessed as bacterial growth inhibition by microdilution assay; assay type: functional
[29] = test system: Staphylococcus haemolyticus; assay: Antibacterial activity against Staphylococcus haemolyticus grown in blood assessed as bacterial growth inhibition by microdilution assay; assay type: functional
[30] = test system: WI-38; assay: Cytotoxicity against human WI-38 cells assessed as reduction in cell viability by sulforhodamine B assay; assay type: functional, cell-based
[31] = test system: MCF7; assay: Cytotoxicity against human MCF7 cells assessed as reduction in cell viability by sulforhodamine B assay; assay type: functional, cell-based
[32] = test system: A549; assay: Cytotoxicity against human A549 cells assessed as reduction in cell viability by sulforhodamine B assay; assay type: functional, cell-based
[33] = molecular target: UDP-N-acetylmuramoyl-L-alanyl-D-glutamate--2,6-diaminopimelate ligase (Mycobacterium tuberculosis (strain ATCC 25618 / H37Rv), UniProt P9WJL3); assay: Inhibition of MurE ligase activity in Mycobacterium tuberculosis assessed as release of inorganic phosphate by hydrolysis of ATP using UDP-MurNAc-l-Ala-d-Glu as substrate in presence of ATP incubated for 30 mins by absorbance assay
[34] = test system: Staphylococcus aureus; assay: Antibacterial activity against Staphylococcus aureus 1199B overexpressing NorA efflux protein assessed as bacterial growth inhibition incubated for 24 hrs by microdilution method; assay type: functional
[35] = test system: Staphylococcus aureus; assay: Antibacterial activity against wild type Staphylococcus aureus 1199 assessed as bacterial growth inhibition incubated for 24 hrs by microdilution method; assay type: functional

Work on COC[C@@H](Cc1ccc(OC)c(OC)c1)[C@@H](COC)Cc1ccc(OC)c(OC)c1 yielded an MIC [1] of 12.7 µg/mL.
With C[C@@H]1O[C@@H](Oc2c(-c3ccc(O)cc3)oc3cc(O)cc(O)c3c2=O)[C@H](OC(=O)/C=C/c2ccc(O)cc2)[C@H](O)[C@H]1OC(=O)/C=C/c1ccc(O)cc1 the inhibition [2] was 40%, the MIC [3] was 35 µM and the MIC [4] was 0.78 µg/mL. For the same compound, the IC50 [5] was 2 µM.
Nc1ccccc1-c1cc2ccccc2[nH]1 was tested, and the MIC [6] was 64 µg/mL (≈ 307 µM), the “fractional inhibitory concentration index (FICI)” value [7] was “>=0.5” and the “fractional inhibitory concentration index (FICI)” value [8] was “>=0.5”. For the same compound, the “fractional inhibitory concentration index (FICI)” value [9] was “>=0.5”, the MIC [10] was 128 µg/mL (≈ 615 µM) and the “fractional inhibitory concentration index (FICI)” value [11] was “>=0.5”.
With C/C=C/C1=CC2C(=CC1=O)O[C@H](c1ccc(OC)c(OC)c1)[C@H]2C (stereo not given in full) the “fractional inhibitory concentration index (FICI)” value [12] was 0.25 and the MIC [13] was 32000 µg/mL.
With CC(=O)c1c(-c2ccc(F)cc2)cn(-c2ccc(C)cc2)c1C the IC50 [14] was > 100 µM and the IC50 [15] was 11.2 µM.
COc1cc(/C=C/C(=O)N/N=C/c2ccc[nH]2)cc(OC)c1OC was tested, and the “fractional inhibitory concentration index (FICI)” value [16] was 0.56, the MIC [17] was 64 µg/mL (≈ 194 µM) and the MIC [18] was 0.5 µg/mL. The “fractional inhibitory concentration index (FICI)” value [19] was 0.56, the MIC [20] was 64 µg/mL (≈ 194 µM) and the MIC [21] was 1 µg/mL.
COc1cc2c(cc1O)CC[n+]1cc3c(OC)c(OC)ccc3cc1-2 [JATRORRHIZINE] was tested, and the “fractional inhibitory concentration index (FICI)” value [22] was 0.375 and the MIC [23] was 16 µg/mL.
With CC1=CC(=O)c2ccccc2C1=O [MENADIONE] the MIC [24] was 64 µg/mL (≈ 372 µM), the MIC [25] was 64 µg/mL (≈ 372 µM) and the MIC [26] was 64 µg/mL (≈ 372 µM). The MIC [27] was 64 µg/mL (≈ 372 µM).
With CC[C@H](C)C(=O)c1c(O)cc(O)cc1OC/C=C(\C)CCC=C(C)C [OLYMPICIN A] the MIC [28] was ≥ 16 µg/mL, the MIC [29] was > 32 µg/mL and the IC50 [30] was 8.9 µM. It also gave an IC50 [31] of 12.5 µM, an IC50 [32] of 10.5 µM and an IC50 [33] of 75 µM.
O=C(OC[C@H]1O[C@@H](OC(=O)c2cc(O)c(O)c(OC(=O)c3cc(O)c(O)c(O)c3)c2)[C@H](OC(=O)c2cc(O)c(O)c(OC(=O)c3cc(O)c(O)c(O)c3)c2)[C@@H](OC(=O)c2cc(O)c(O)c(OC(=O)c3cc(O)c(O)c(O)c3)c2)[C@@H]1OC(=O)c1cc(O)c(O)c(OC(=O)c2cc(O)c(O)c(O)c2)c1)c1cc(O)c(O)c(OC(=O)c2cc(O)c(O)c(O)c2)c1 [TANNIC ACID] was tested, and the MIC [34] was ≥ 1020 µg/mL and the MIC [35] was ≥ 1020 µg/mL.
